Source: patent US20050209157A1, “Short bioactive peptides and methods for their use” (priority 2001, published 2005)
≈ marks a conversion by molar mass, not a printed value. Where two headings read alike, the source gives them in different places. Non-standard residues stand in square brackets, D forms with d. Residues, ends and D or L forms follow the SMILES beside them. No end group written: not given here.

Key:
[1] = system: Stapholococcus aureus ATCC 25923; experiment: Antimicrobial assay I, modified protocol (tryptic soy broth), MBC; details: minimum bactericidal concentration, Table 4
Description: (§1) The preparation of all media, stock solutions, and dilutions took place in a laminar flow hood to prevent contamination. Bacterial cells were freshly grown on antibiotic medium 2 agar slants (pH 7.0 at 25° C.). Bacteria were suspended and diluted in antibiotic medium 3 to about 10^4 cfu/ml and used as the inoculum. Sample solutions (100 μl/well) were added to plates according to the plate layout. Inoculum (100 μl/well) was added to achieve a final concentration of 5×10^3 cfu/ml. Negative controls received 100 μl saline and 100 μl growth medium. Positive controls received 100 μl saline and 100 μl inoculum. Bacterial plates were incubated at 37° C. for 24 hours.
(§2) However, the data for Table 4 were obtained with a modified protocol wherein the medium was tryptic soy broth, inocolum strength was approximately 10^4 CFU per ml, and values determined were minimum bactericidal concentrations (MBC) or minimum fungicidal concentrations (MFC).
(§3) MBC or MFC values are in μg/mL. E. coli is Escherichia coli ATCC accession number 25922; P. aerug is Pseudomonas aeruginosa ATCC accession number 27853, S. aur. is Stapholococcus aureus ATCC accession number 25923; Candida is Candida albicans ATCC accession number 10231.

[2] = system: Pseudomonas aeruginosa ATCC 27853; experiment: as above; details: minimum bactericidal concentration, Table 4
Description: as §1, §2, §3

in vitro [3] = format: cell-based, human; details: human, human red blood cells
[4] = system: Escherichia coli ATCC 25922; experiment: Antimicrobial assay I, modified protocol (tryptic soy broth), MBC; details: minimum bactericidal concentration, Table 4
fungal = experiment: Presently preferred antifungal peptides, selected from the MIC/MBC data; format: cell-based; details: X = preferred
Description: The peptide's “length” is the number of amino acid residues in the sequence.

[5] = system: Candida albicans ATCC 10231; experiment: Antimicrobial assay I, modified protocol (tryptic soy broth), MFC; details: minimum fungicidal concentration, Table 4
cancer cell lines = experiment: Anti-cancer assays, MTT, summary over the cancer cell lines; format: cell-based; details: X = preferred
in vitro [6] = details: human, WI38 normal lung fibroblast cells, WI-38 LD50, Table 26, valine substitution
Escherichia coli 25922 = experiment: microbe, parasite or virus in culture; details: for MBC: Escherichia coli, 25922, read-out: MBC, Without peptide
Description: Synergy between peptide Shiva-10 (SEQ ID NO:4) and various antimicrobial agents was investigated against Escherichia coli 25922.
Synergy between tetracycline and various peptides was investigated against Escherichia coli 25922 MBC. […] When combined with the peptides, the concentration of tetracycline was held at 1.5 ppm.

[7] = system: Pseudomonas aeruginosa ATCC 9027; experiment: Antimicrobial assay I, MIC by OD measurement; format: cell-based
WI38 = details: Table 27
[8] = system: MCF7 line of breast cancer cells
[9] = system: human red blood cells (RBC); experiment: in vitro; format: cell-based; details: Table 27
[10] = pH 7, Table 26, valine substitution, read-out: Hemolysis RBC LD50
[11] = pH 7, Table 27, read-out: Hemolysis (LD50)

Compound	MBC S. aur A.25923 [1]	MBC P. aerug A.27853 [2]	HC50 at 1 h (in vitro [3]; [10])	MBC E. coli A.25922 [4]	Anti-fungal (preferred peptide) (fungal)	MFC Candida A.10231 [5]	Anti-cancer (preferred peptide) (cancer cell lines)	CC50 at 24 h (in vitro [6])	further results
FAKLLAKALKKLL-NH2 [compound 55]	4 µg/mL	10 µg/mL	20 µg/mL	4 µg/mL	X (Preferred antifungal peptides can be selected as having MIC or MBC values of less than or equal to about 25 μg/ml)	25 µg/mL	X (Preferred anticancer peptides can be selected as having LD50 values of less than or equal to about 25 μg/ml)	32 µg/mL	
FALALKKALKALKKAL-NH2 [compound 34]	40 µg/mL	15 µg/mL		15 µg/mL	X (Preferred antifungal peptides can be selected as having MIC or MBC values of less than or equal to about 25 μg/ml)	>40 µg/mL	X (Preferred anticancer peptides can be selected as having LD50 values of less than or equal to about 25 μg/ml)		
CC(C)C[C@H](NC(=O)[C@H](C)NC(=O)[C@H](CC(C)C)NC(=O)[C@H](C)NC(=O)[C@H](CC(C)C)NC(=O)[C@H](CCCCN)NC(=O)[C@H](C)NC(=O)[C@H](CC(C)C)NC(=O)[C@H](CCCCN)NC(=O)[C@H](CCCCN)NC(=O)[C@H](C)NC(=O)[C@H](CC(C)C)NC(=O)[C@H](CCCCN)NC(=O)[C@H](C)NC(=O)[C@H](CC(C)C)NC(=O)[C@H](CCCCN)NC(=O)[C@H](CCCCN)NC(=O)[C@H](C)NC(=O)[C@@H](N)Cc1ccccc1)C(N)=O [compound 36]	10 µg/mL (≈ 4.91 µM)	15 µg/mL (≈ 7.36 µM)	12 µg/mL	30 µg/mL (≈ 14.7 µM)		>40 µg/mL	X (Preferred anticancer peptides can be selected as having LD50 values of less than or equal to about 25 μg/ml)	19 µg/mL (≈ 9.32 µM)	
C[C@H]1c2cccc(O)c2C(=O)C2=C(O)[C@]3(O)C(=O)C(C(N)=O)=C(O)[C@@H](N(C)C)[C@@H]3[C@@H](O)[C@@H]21 [Doxycycline]									MBC (Escherichia coli 25922): 5 µg/mL; MBC, With peptide (Escherichia coli 25922; with 15 μg/mL peptide Shiva-10): 1 µg/mL
FALALKALKKLKKALKKAL-NH2 [FLAK 06AM (P27; SEQ ID NO: 12)]									MBC, Without tetracycline (Escherichia coli 25922; peptide alone): 75 µg/mL; MBC, With tetracycline (Escherichia coli 25922; tetracycline held at […]): 25 µg/mL
FAKLLAKLAKKVL-NH2 [compound 124]	8 µg/mL	40 µg/mL	55 µg/mL	10 µg/mL	X (Preferred antifungal peptides can be selected as having MIC or MBC values of less than or equal to about 25 μg/ml)	15 µg/mL	X (Preferred anticancer peptides can be selected as having LD50 values of less than or equal to about 25 μg/ml)	21 µg/mL	P. aerug (MIC) [7]: 100 µg/mL; HC50 at 1 h (in vitro [3]; [11]): 300 µg/mL; WI38 LD50 (WI38): 21 µg/mL
FALALKALKKLKKALKKAL-OH [27B]	>40 µg/mL	10 µg/mL		40 µg/mL	X (Preferred antifungal peptides can be selected as having MIC or MBC values of less than or equal to about 25 μg/ml)	>40 µg/mL	X (Preferred anticancer peptides can be selected as having LD50 values of less than or equal to about 25 μg/ml)		
CC/C(=C(\c1ccccc1)c1ccc(OCCN(C)C)cc1)c1ccccc1 [Tamoxifen]									MCF7 LD50 ([8]; agent alone): 20 µg/mL; Active agent LD50 on MCF7 cells: Total conc. ([8]; peptide plus tamoxifen concentration at LD50): 20 µg/mL; Active agent LD50 on MCF7 cells: Tamox. conc. ([8]; tamoxifen concentration at LD50 (peptide with tamoxifen; tamoxifen alone in its own line)): 20 µg/mL
VAKLLAKLAKKLL-NH2 [compound 48]	4 µg/mL	25 µg/mL	130 µg/mL	8 µg/mL	X (Preferred antifungal peptides can be selected as having MIC or MBC values of less than or equal to about 25 μg/ml)	10 µg/mL	X (Preferred anticancer peptides can be selected as having LD50 values of less than or equal to about 25 μg/ml)	160 µg/mL	P. aerug (MIC) [7]: 5 µg/mL; HC50 at 1 h (in vitro [3]; [11]): 200 µg/mL; WI38 LD50 (WI38): 160 µg/mL
FAKLLAKLAKKLL-NH2 [compound 43]	4 µg/mL	15 µg/mL	20 µg/mL	8 µg/mL	X (Preferred antifungal peptides can be selected as having MIC or MBC values of less than or equal to about 25 μg/ml)	15 µg/mL	X (Preferred anticancer peptides can be selected as having LD50 values of less than or equal to about 25 μg/ml)	25 µg/mL	P. aerug (MIC) [7]: 100 µg/mL; Hemolysis (LD50) [9]: 20 µg/mL; WI38 LD50 (WI38): 25 µg/mL
NC[C@@H]1O[C@H](O[C@H]2[C@@H](O)[C@H](O[C@@H]3[C@@H](O)[C@H](N)C[C@H](N)[C@H]3O[C@H]3O[C@H](CN)[C@@H](O)[C@H](O)[C@H]3N)O[C@@H]2CO)[C@H](N)[C@@H](O)[C@@H]1O [Neomycin]									MBC, Without peptide (Escherichia coli 25922; agent alone): 100 µg/mL; MBC, With peptide (Escherichia coli 25922; with 5 μg/mL peptide Shiva-10): 5 µg/mL
NCC[C@H](O)C(=O)N[C@@H]1C[C@H](N)[C@@H](O[C@H]2O[C@H](CN)[C@@H](O)[C@H](O)[C@H]2O)[C@H](O)[C@H]1O[C@H]1O[C@H](CO)[C@@H](O)[C@H](N)[C@H]1O [Amikacin]									MBC (Escherichia coli 25922): 150 µg/mL; MBC, With peptide (Escherichia coli 25922; with 5 μg/mL peptide Shiva-10): 50 µg/mL
FAKALAKLAKKLL-NH2 [compound 92]	15 µg/mL	25 µg/mL		40 µg/mL	X (Preferred antifungal peptides can be selected as having MIC or MBC values of less than or equal to about 25 μg/ml)	25 µg/mL	X (Preferred anticancer peptides can be selected as having LD50 values of less than or equal to about 25 μg/ml)		
FALAKLAKKAKAKLKKALKAL-NH2 [compound 26]	>40 µg/mL	>40 µg/mL		>80 µg/mL	X (Preferred antifungal peptides can be selected as having MIC or MBC values of less than or equal to about 25 μg/ml)	>50 µg/mL	X (Preferred anticancer peptides can be selected as having LD50 values of less than or equal to about 25 μg/ml)		
CC(C)C[C@H](NC(=O)[C@H](C)NC(=O)[C@H](CCCCN)NC(=O)[C@H](CCCCN)NC(=O)[C@H](CC(C)C)NC(=O)[C@H](C)NC(=O)[C@H](CCCCN)NC(=O)[C@H](CCCCN)NC(=O)[C@H](CC(C)C)NC(=O)[C@@H](CCCCN)NC(=O)[C@@H](CCCCN)NC(=O)[C@H](CC(C)C)NC(=O)[C@H](C)NC(=O)[C@H](CCCCN)NC(=O)[C@H](CCCCN)NC(=O)[C@H](CC(C)C)NC(=O)[C@H](C)NC(=O)[C@H](CCCCN)NC(=O)[C@H](CC(C)C)NC(=O)[C@H](C)NC(=O)[C@H](CC(C)C)NC(=O)[C@H](C)NC(=O)[C@@H](N)Cc1ccccc1)C(=O)O [compound 37] (H-FALALKALKKAL[dK][dK]LKKALKKAL-OH; N-terminus assumed)	40 µg/mL (≈ 15.8 µM)	8 µg/mL (≈ 3.15 µM)		8 µg/mL (≈ 3.15 µM)		>50 µg/mL	X (Preferred anticancer peptides can be selected as having LD50 values of less than or equal to about 25 μg/ml)		
FALALKALKKALKKLKKALKKAL-OH [compound 1]	25 µg/mL	30 µg/mL	20 µg/mL	25 µg/mL		>50 µg/mL	X (Preferred anticancer peptides can be selected as having LD50 values of less than or equal to about 25 μg/ml)	27 µg/mL	
